From patent US10278973B2, “Hydroxyl purine compounds and use thereof” (GUANGDONG RAYNOVENT BIOTECH CO., LTD., priority 2015, dated 2019) come the findings set out here.

pIC50: −log10 of the molar value.

In one test the target is T1, Full length human PDE2A protease (Homo sapiens, UniProt O00408).
T1 construct: Full length human PDE2A protease; GST (N); host or cells: insect Sf9 cells (baculovirus)
T1 sequence (O00408 whole entry): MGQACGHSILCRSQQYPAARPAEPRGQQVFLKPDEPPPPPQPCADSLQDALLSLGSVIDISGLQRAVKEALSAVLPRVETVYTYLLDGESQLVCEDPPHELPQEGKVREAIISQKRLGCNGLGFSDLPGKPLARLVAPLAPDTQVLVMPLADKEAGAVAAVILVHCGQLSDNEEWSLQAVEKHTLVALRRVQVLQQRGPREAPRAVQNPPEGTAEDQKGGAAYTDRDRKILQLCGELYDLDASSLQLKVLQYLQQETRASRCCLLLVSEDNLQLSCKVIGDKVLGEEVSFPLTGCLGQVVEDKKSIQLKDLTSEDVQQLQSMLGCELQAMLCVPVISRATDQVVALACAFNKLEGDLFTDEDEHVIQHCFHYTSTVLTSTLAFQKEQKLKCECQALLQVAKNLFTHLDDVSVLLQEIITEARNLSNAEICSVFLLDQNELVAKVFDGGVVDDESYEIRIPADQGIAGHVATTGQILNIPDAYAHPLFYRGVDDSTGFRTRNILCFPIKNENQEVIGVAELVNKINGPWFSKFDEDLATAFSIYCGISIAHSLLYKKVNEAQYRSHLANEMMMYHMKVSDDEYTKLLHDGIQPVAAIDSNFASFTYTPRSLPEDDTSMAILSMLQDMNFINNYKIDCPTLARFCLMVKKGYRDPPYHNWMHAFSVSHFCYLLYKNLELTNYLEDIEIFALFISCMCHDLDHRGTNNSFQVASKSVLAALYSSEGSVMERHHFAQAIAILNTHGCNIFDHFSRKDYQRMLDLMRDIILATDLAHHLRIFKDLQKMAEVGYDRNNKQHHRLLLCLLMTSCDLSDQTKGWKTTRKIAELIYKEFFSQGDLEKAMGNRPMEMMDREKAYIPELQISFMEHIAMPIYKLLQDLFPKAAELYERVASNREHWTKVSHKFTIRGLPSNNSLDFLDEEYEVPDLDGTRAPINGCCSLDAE
Kind of test: In vitro evaluation of PDE2 phosphodiesterase inhibitory activity (Transcreener AMP2/GMP2 fluorescence polarization). It counts as biochemical.
Settings: not given
On the procedure: In Vitro Evaluation of PDE2 Phosphodiesterase Inhibitory Activity Experimental objectives: To detect the concentration of AMP/GMP produced in the reaction system by measuring the fluorescence intensity of the fluorescent dye AlexaFluor 633 substituted on AMP/GMP antibody and to calculate the PDE2 phosphodiesterase inhibitory IC50 value of the test compound. Test buffer solution: 10 mM Tris-HCl, pH 7.5, 5 mM MgCl2, 0.01% Brij 35, 1 mM DTT, and 1% DMSO. Enzyme: Full length human PDE2A protease expressed and recombined in insect Sf9 cells with baculovirus using N-terminal GST tag […] Transcreener® AMP^2/GMP^2 antibody, AMP2/GMP2 AlexaFluor 633 fluorescent dye The enzyme solution was prepared with freshly prepared buffer solution and then added to the reaction wells. The DMSO solution of the test compound was added by Echo550 non-contact nanoscale sonicate pipetting system and preincubated for 10 minutes at room temperature. The reaction was initiated by addition of substrate (1 μM cGMP) and allowed to react for one hour at room temperature. The detection system (Transcreener® AMP^2/GMP^2 antibody, AMP2/GMP2 AlexaFluor 633 fluorescent dye) was then added and reacted for 90 minutes at room temperature before fluorescence polarization was detected using Ex/Em 620/688. The intensity of fluorescence polarization was converted to nM concentration by the AMP/GMP standard curve and then relative inhibition of enzyme activity relative to DMSO blank was calculated. IC50 values and curves were calculated using the Prism software package (GraphPad Software, San Diego Calif., USA)
(Polarisation of emitted light reports the rotation of a fluorescent probe.)
Regarding `COc1ccc(Cn2c(=O)c3c(ncn3C)n(C)c2=O)cn1` [Example 48, 1-((6-Methoxypyridin-3-yl)methyl)-3,7-dimethyl-1H-purine-2,6(3H,7H)-dione], the pIC50 was 4.30 to 5.00.

Staying with this test, now noted: recombinant full length human PDE2A, substrate 1 μM cGMP, 1 hour at room temperature; read-out: PDE2 phosphodiesterase inhibitory activity.
Consider `Cc1cc(CCCCn2c(=O)c3c(cnn3CC3CC3)n(C)c2=O)on1` [Example 81, 1-(Cyclopropylmethyl)-4-methyl-6-(4-(3-methylisoxazol-5-yl)butyl)-pyrazolo[4,3-d]pyrimidin-5,7-dione], for which the pIC50 is 4.30 to 5.00.

Take `Cc1cc(CCCCn2c(=O)c3c(ncn3CC3CC3)n(C)c2=O)on1` [Example 56, 7-(Cyclopropylmethyl)-3-methyl-1-(4-(3-methylisoxazol-5-yl)butyl)-1H-purine-2,6(3H,7H)-dione]: the pIC50 is 5.00 to 6.00. The same measure, in the same setting: with `Cn1ncc(CCCCn2c(=O)c3c(ncn3C)n(C)c2=O)n1` [Example 35, 3,7-Dimethyl-1-(4-(2-methyl-2H-1,2,3-triazol-4-yl)butyl)-1H-purine-(3H,7H)-dione] the figure was 4.30 to 5.00; with `Cc1cc(CC2CCCC(n3c(=O)c4c(ncn4C)n(C)c3=O)C2)on1` (stereo not shown) [Example 28], 5.00 to 6.00; with `Cc1cc(-c2ccc(Cn3c(=O)c4c(ncn4C)n(C)c3=O)cc2)on1` [Example 45, 3,7-Dimethyl-1-[4-(3-methylisoxazol-5-yl)-benzyl]-3,7-dihydro-purine-2,6-dione], 5.00 to 6.00. `Cc1cc(CCCCn2c(=O)c3c(ncn3C)n(C)c2=O)n(C)n1` (single isomer, unassigned) [Example 14 Isomer 1, 1-(4-(1,3-dimethyl-1H-pyrazol-5-yl)butyl)-3,7-dimethyl-1H-purine-2,6(3H,7H)-dione]: the pIC50 is 4.30 to 5.00.

Turning to `CC(C)c1oncc1Cn1c(=O)c2c(ncn2C)n(C)c1=O` [Example 22, 1-((5-Isopropylisoxazol-4-yl)methyl)-3,7-dimethyl-1H-purine-2,6(3H,7H)-dione], the pIC50 is 4.30 to 5.00.

For the compound `Cn1cnc2c1c(=O)n(CCCCc1nn[nH]n1)c(=O)n2C` [Example 37, 1-(4-(2H-tetrazol-5-yl)butyl)-3,7-dimethyl-1H-purine-2,6(3H,7H)-dione], the pIC50 was 4.30 to 5.00. The same measure, in the same setting: with `Cc1cc(CCCCn2c(=O)c3nn(C)cc3n(C)c2=O)on1` [Example 69, 2,4-Dimethyl-6-[4-(3-methylisoxazol-5-yl)-butyl]-2,4-dihydro-pyrazolo[4,3-d]pyrimidine-5,7-dione] the figure was 4.30 to 5.00. Same read-out and setting: with `Cc1cc(CCCCn2c(=O)c3c(cnn3CC(F)(F)F)n(C)c2=O)on1` [Example 75, 4-Methyl-6-(4-(3-methylisoxazol-5-yl)butyl)-1-(2,2,2-trifluoroethyl)-pyrazolo[4,3-d]pyrimidine-5,7-dione] the figure was 4.30 to 5.00. Still for that read-out and setting: with `Cc1cc(CCCCn2c(=O)c3cc[nH]c3n(C)c2=O)on1` [Example 66, 1-Methyl-3-(4-(3-methylisoxazol-5-yl)butyl)-1H-pyrrolo[2,3-d]pyrimidine-2,4(3H,7H)-dione] the figure was 4.30 to 5.00. As to `Cn1nnnc1CCCCCn1c(=O)c2c(ncn2C)n(C)c1=O` (single isomer, unassigned) [Example 40 Isomer 1, 3,7-Dimethyl-1-(5-(1-methyl-1H-tetrazol-5-yl)pentyl)-1H-purine-(3H,7H)-dione], the pIC50 is 4.30 to 5.00. Turning to `Cc1cc(CCCCn2c(=O)c3c(ncn3C)n(C)c2=O)no1` [Example 20, 3,7-Dimethyl-1-(4-(5-methylisoxazol-3-yl)butyl)-1H-purine-2,6(3H,7H)-dione], the pIC50 was 4.30 to 5.00. On the same count and under the same terms, then `Cc1cc(CCCCn2c(=O)c3c(ncn3CC3(C)COC3)n(C)c2=O)on1` [Example 61, 3-Methyl-1-(4-(3-methylisoxazol-5-yl)butyl)-7-((3-methyloxetan-3-yl)methyl)-1H-purine-2,6(3H,7H)-dione], with 4.30 to 5.00; and `Cn1nnc(CCCCCn2c(=O)c3c(ncn3C)n(C)c2=O)n1` (single isomer, unassigned) [Example 40 Isomer 2, 3,7-Dimethyl-1-(5-(1-methyl-2H-tetrazol-5-yl)pentyl)-1H-purine-(3H,7H)-dione], with 4.30 to 5.00; and `Cc1cc(CCCCn2c(=O)c3c(ncn3C)n(C)c2=O)[nH]n1` [Example 12, 3,7-Dimethyl-1-(4-(3-methyl-1H-pyrazol-5-yl)butyl)-1H-purine-2,6(3H,7H)-dione], with 4.30 to 5.00. Regarding `CCc1cc(CCn2c(=O)c3c(ncn3C)n(C)c2=O)nn1C` [Example 11 Product 2, 1-(2-(5-Ethyl-1-methyl-1H-pyrazol-3-yl)ethyl)-3,7-dimethyl-1H-purine-2,6(3H,7H)-dione], the pIC50 was 4.30 to 5.00. On the same count and under the same terms, then `CC(C)c1oncc1Cn1c(=O)c2c(ncn2CC2CC2)n(C)c1=O` [Example 58], with 5.00 to 6.00; and `Cn1cnc2c1c(=O)n(CCCCc1cc3ccccc3o1)c(=O)n2C` [Example 42, 1-(4-(Benzofuran-2-yl)butyl)-3,7-dimethyl-1H-purine-2,6(3H,7H)-dione], with 5.00 to 6.00; and `Cn1cnc2c1c(=O)n(CCCCCc1nn[nH]n1)c(=O)n2C` [Example 39, 1-(5-(2H-tetrazol-5-yl)pentyl)-3,7-dimethyl-1H-purine-2,6(3H,7H)-dione], with 4.30 to 5.00. For the compound `Cn1cnc2c1c(=O)n(CCCc1[nH]nc3c1CCCC3)c(=O)n2C` [Example 44], the pIC50 was 4.30 to 5.00.

Regarding `Cc1cc(CCCCn2c(=O)c3c(ncn3CC(F)(F)F)n(C)c2=O)on1` [Example 51, 3-Methyl-1-(4-(3-methylisoxazol-5-yl)butyl)-7-(2,2,2-trifluoroethyl)-1H-purine-2,6(3H,7H)-dione], the pIC50 was 4.30 to 5.00. On the same count and under the same terms, then `Cc1noc(C)c1Cn1c(=O)c2c(ncn2CC2CC2)n(C)c1=O` [Example 57, 7-(Cyclopropylmethyl)-1-((3,5-dimethylisoxazol-4-yl)methyl)-3-methyl-1H-purine-2,6-(3H,7H)-dione], with 5.00 to 6.00; and `Cn1cnc2c1c(=O)n(CCCc1nc3ccccc3s1)c(=O)n2C` [Example 43, 1-(3-(Benzo[d]thiazol-2-yl)propyl)-3,7-dimethyl-1H-purine 2,6(3H,7H)-dione], with 4.30 to 5.00. For the compound `Cn1cnc2c1c(=O)n(CCCCc1cn[nH]n1)c(=O)n2C` [Example 34, 1-(4-(2H-1,2,3-triazol-4-yl)butyl)-3,7-dimethyl-1H-purine-2,6(3H,7H)-dione], the pIC50 is 4.30 to 5.00. Take `Cc1cc(CCCCn2c(=O)c3c(ncn3C(C)C)n(C)c2=O)on1` [Example 54, 7-Isopropyl-3-methyl-1-(4-(3-methylisoxazol-5-yl)butyl)-1H-purine-2,6(3H,7H)-dione]: the pIC50 is 4.30 to 5.00. As to `CCCCn1cnc2c1c(=O)n(CCCCc1cc(C)no1)c(=O)n2C` [Example 55, 7-Butyl-3-methyl-1-(4-(3-methylisoxazol-5-yl)butyl)-1H-purine-2,6(3H,7H)-dione], the pIC50 was 5.00 to 6.00.

Consider `Cc1cc(CCCCn2c(=O)c3c(ncn3CC(C)C)n(C)c2=O)on1` [Example 60, 7-Isobutyl-3-methyl-1-(4-(3-methylisoxazol-5-yl)butyl)-1H-purine-2,6(3H,7H)-dione], for which the pIC50 is 5.00 to 6.00. On to `Cc1cc(CCCCn2c(=O)c3ccccc3n(C)c2=O)on1` [Example 83, 1-Methyl-3-(4-(3-methylisoxazol-5-yl)butyl)quinazoline-2,4(1H,3H)-dione], for which the pIC50 is 4.30 to 5.00. The same measure, in the same setting: then `Cc1nc(C)c(Cn2c(=O)c3c(ncn3C)n(C)c2=O)s1` [Example 29, 1-((2,4-Dimethylthiazol-5-yl)methyl)-3,7-dimethyl-1H-purine-2,6(3H,7H)-dione], with 4.30 to 5.00; and `Cn1nnc(CCCCn2c(=O)c3c(ncn3C)n(C)c2=O)n1` [Example 38 Isomer 1, 3,7-Dimethyl-1-(4-(2-methyl-2H-tetrazol-5-yl)butyl)-1H-purine-(3H,7H)-dione], with 4.30 to 5.00. The same measure, in the same setting: then `CCCn1cnc2c1c(=O)n(CCCCc1cc(C)no1)c(=O)n2C` [Example 52, 3-Methyl-1-(4-(3-methylisoxazol-5-yl)butyl)-7-propyl-1H-purine-2,6(3H,7H)-dione], with 5.00 to 6.00; and `Cc1cc(CCCCn2c(=O)c3c(ncn3C(F)F)n(C)c2=O)on1` (single isomer, unassigned) [Example 49 Isomer 1, 7-(Difluoromethyl)-3-methyl-1-(4-(3-methylisoxazol-5-yl)butyl)-1H-purine-2,6(3H,7H)-dione], with 4.30 to 5.00; and `Cc1cc(CCCCn2c(=O)c3ccn(C)c3n(C)c2=O)on1` [Example 67, 1,7-Dimethyl-3-(4-(3-methylisoxazol-5-yl)butyl)-1H-pyrrolo[2,3-d]pyrimidine-2,4(3H,7H)-dione], with 4.30 to 5.00. On to `Cn1cnc2c1c(=O)n(CCCc1c[nH]c3ccccc13)c(=O)n2C` [Example 41], for which the pIC50 was 5.00 to 6.00. The same measure, in the same setting: with `CCn1cnc2c1c(=O)n(CCCCc1cc(C)no1)c(=O)n2C` [Example 50, 7-Ethyl-3-methyl-1-(4-(3-methylisoxazol-5-yl)butyl)-1H-purine-2,6(3H,7H)-dione] the figure was 5.00 to 6.00.
